Source: a melting point compilation (Tetko et al.; mined from patent text by program, amines drawn as free bases though some values may be those of a salt)

Row | melting point [°C] | Structure (SMILES)
1 | 132 to 134 | Cn1ncc2c1-c1c(Oc3ccc4c(c3)OCO4)sc(C#N)c1CC2
2 | 170 | O=C(c1cccs1)c1cnn2c(-c3cccc(-c4nnn(CC5CCC5)n4)c3)ccnc12
3 | 262 to 264 | CC(C)c1nc(-n2cnc3ccccc32)sc1/C=C/C(=O)O
4 | 231 to 233 | c1cn2c(n1)-c1sccc1-n1cnc(-c3nc(C4CC4)no3)c1C2
5 | 115 to 116 | COc1cccc(-c2cc(=O)c3cc(OCCCCCN4CCC(O)CC4)ccc3o2)c1
6 | 214 | CCOC(=O)C1=C(c2ccccc2)Nc2n[nH]cc2C1c1ccccc1Cl (configuration not stated)
7 | 162 to 163 | CC(C)CNS(=O)(=O)c1ccc(N)c(C(=O)N2CCN(C)CC2)c1
8 | 179 to 180 | Cc1ccccc1S(=O)(=O)NC(N)=O
9 | > 300 | O=C(O)Cn1c2c([nH]c(=O)c1=O)CCC1=C2C=C(n2ccc(CN3CCN(c4ccc([N+](=O)[O-])cc4)CC3)c2)CC1
10 | 202 to 204 | Cc1c(O)cc2c(c1C)N(C=O)C(C)(C)C2
11 | 51 to 52 | COc1cccc(C(O)c2cccc(C(F)(F)F)c2)c1 (configuration not stated)
12 | 160 | CC(C(=O)NCCN(C)C)c1cccc(C(=O)c2cc3ccsc3s2)c1 (configuration not stated)
13 | 148 to 150 | Cc1csc(N)c1C(=O)c1ccc(Cl)cc1
14 | 115 | CCOC(=O)CC(NC(=O)c1cc(NC(=O)OC(C)(C)C)cc(OCc2ccccc2)c1)c1ccccc1 (racemic)
15 | 124 to 126 | Cc1cc(Sc2ccc([N+](=O)[O-])cc2)cc(Br)n1
16 | 149 to 150 | CN1CCC(NNC(=O)c2ccccc2)CC1
17 | 113 to 117 | COC(=O)c1nc(-c2ccc(Cl)c(OC)c2F)c(F)c(N)c1SC
18 | 219 to 220 | Cc1cc(O)nc2nc(SCc3ccccc3)nn12
19 | 68 to 70 | OC(c1ccc(Cl)cc1)c1ccccc1Cl (configuration not stated)
20 | 222 to 224 | O=C(O)c1ccc(CCn2ccn([C@H]3CCc4c(F)cc(F)cc4C3)c2=S)cc1
21 | 242 to 245 | O=C1NCC=C2N=CN=C12
22 | 240 | Nc1cc(C(F)(F)F)ccc1C=C1NC(=S)NC1=O
23 | 132 to 135 | O=C(NCCCn1cnc(-c2ccccc2)c1)c1ccc(Br)cc1
24 | 250 to 255 | Nc1nc(O)c2cc(CN(Cc3c[nH]c(=O)[nH]c3=O)c3ccc(C(=O)N[C@@H](CCC(=O)O)C(=O)O)cc3)ccc2n1

Row | melting point [°C] | Structure (SMILES)
25 | 248 to 249 | O=C1OC(c2ccccc2)(c2ccccc2)C2CN(S(=O)(=O)/C=C/c3ccc(F)cc3)CCN12 (configuration not stated)
26 | 191 to 195 | COc1ccc(N2C(=O)[C@H]([C@@H](C)O)[C@H]2S(=O)(=O)c2ccccc2)cc1
27 | 209 to 210 | COC(=O)c1ccc(-c2ccc3cc(OCCCCC=C=O)c(C45CC6CC(CC(C6)C4)C5)cc3c2)cc1
28 | 158 to 160 | OCc1nnc(-c2cc3c(OC[C@@H](O)CN4CCC(c5ccc(Cl)c(Cl)c5)CC4)cccc3o2)o1
29 | 129 to 131 | CCOC(=O)C1=C[C@@H](OC(CC)CC)[C@H](NC(C)=O)[C@H](O)C1
30 | 119 to 121 | CC1(CC(=O)O)SCCC2=C1Cc1ccccc12 (configuration not stated)
31 | 163 to 165 | O=C1CCc2c(Cl)sc(-c3ccncc3)c21
32 | 246 | CN(C)C(=O)CC1(O)C(=O)Nc2ccc(I)cc21 (configuration not stated)
33 | 332 to 334 | Cn1cc(C2=C(c3c4n(c5ccccc35)CCC(CNC=O)C4)C(=O)NC2=O)c2ccccc21 (configuration not stated)
34 | 140 | CCONC(=O)c1c(Cl)ccc2cc(Cl)cnc12
35 | 97 to 98 | CCCCCCN1c2ccc(OC)cc2C(C)(C)C12C=Cc1cc([N+](=O)[O-])cc(OC)c1S2 (configuration not stated)
36 | 203 to 204 | O=C(O)Cc1nn(-c2nc3c(Cc4ccc5scnc5c4)cccc3s2)c(=O)c2ccccc12
37 | 67 to 69 | O=C(Nc1ccccc1)OCC1(COC(=O)Nc2ccccc2)CSc2ccccc2C1=O
38 | 114 to 116 | CCCCn1ncc(/C=C(\Cc2cc3c(cc2OC)OCO3)C(=O)O)c1-c1cc(Cl)c(C)cc1OCc1ccccc1C(=O)O
39 | 181 | O=C(Nc1cccnc1S(=O)(=O)c1ccccc1)N[C@@H](Cc1ccc(NC(=O)c2c(Cl)cccc2Cl)cc1)C(=O)O
40 | 97 to 100 | CCCOc1cc2c(cc1/C=C/c1ccc(C(=O)OCC)cc1)C(C)(C)CCC2(C)C
41 | 98 to 101 | COC(=O)c1sc(C)cc1C
42 | 188 to 189 | CCCC1N=C2C(=C(C)C(Cl)=NC2(N)CCOCCNC(=O)c2ccccc2)N1 (configuration not stated)
43 | 306 to 307 | CN1C(=O)c2[nH]c3cc(Cl)ccc3c2Oc2ccccc21
44 | 186 | COc1cc(N)nc(Cl)n1
45 | 100 to 101 | O=C(NCc1ccccc1)NOCC(O)CN1CCCCC1 (configuration not stated)
46 | 193 to 194 | CC1(C)CN(c2ncc(C(=O)N(CC3CC3)c3cccc(C(F)(F)F)c3)c(N)n2)C(=O)N1
47 | 184 to 186 | Nc1nnc(SCC(CS(=O)(=O)c2ccc(-c3ccc(Cl)cc3)cc2)C(=O)O)s1 (configuration not stated)
48 | > 250 | CC(C)(O)c1ccc(-c2cnc3[nH]c(=O)n(CC4CCCCC4)c3n2)cn1

Row | melting point [°C] | Structure (SMILES)
49 | > 270 | N#CC1=C(c2ccccc2)Nc2n[nH]cc2C1c1cccc(C#N)c1Br (configuration not stated)
50 | 103 to 106 | COc1ccc2c(c1)CC(NC(=S)NCCOC(=O)c1ccccc1)CC2 (configuration not stated)
51 | 138 to 140 | COc1ccc2c(c1)C(=O)OC(=O)C2
52 | 150 to 152 | O=C1CN(Cc2ccccc2)C(=S)N1
53 | 109 to 110 | Cc1oc(-c2ccccc2)nc1CCOc1ccc(CCC#N)cc1
54 | 118 to 121 | O=C(O)CCCCCCCCCCCCCCC(=O)ON1C(=O)CCC1=O
55 | 151 | CC1(C)OC(O)C(Oc2ccc(F)c(F)c2)=C1c1ccc(S(C)(=O)=O)cc1 (configuration not stated)
56 | 122 | CCCc1cnc(NC(=O)C(c2ccccc2)c2ccccc2)o1
57 | 209 to 210 | Cc1[nH]c(-c2ccc(F)cc2)c(N)c1C(=O)c1ccccc1
58 | 218 to 219 | CCc1cn(C2CC(O)C(CNC(=O)CS(=O)(=O)c3ccccc3)O2)c(=O)[nH]c1=O (configuration not stated)
59 | 141 to 145 | CC(Oc1ccc2nc(NC(=O)CCCN3CCOCC3)sc2c1)c1c(Cl)ccc(F)c1Cl (configuration not stated)
60 | 184 to 186 | CN(C)C(=S)Sc1cc(=O)n(Cc2ccccc2)s1
61 | 178 to 180 | COc1cc(/C=[N+](\[O-])C(C)C)ccc1O
62 | 112 | OC1(c2cc(F)cc(OCc3ccccc3)c2)CCOCC1
63 | 140 to 143 | CCOc1sc(C)nc1S(=O)(=O)NC(=O)Nc1nc(OC)cc(OC)n1
64 | 173 to 174 | Cn1nc(-c2ccncc2)c2ccccc2c1=O
65 | 200 | Cc1[nH]c(C=O)c(C)c1CNC(=O)C(F)(F)F
66 | 99 to 100 | Cc1c(OC(F)F)ccnc1CSc1nc2ccccc2[nH]1
67 | 161 | CSc1ccc(C=CC(=O)c2ccc(Br)cc2)cc1
68 | 225 to 227 | Cc1cc(-n2ccc(OCc3ccc(C(F)(F)F)cc3)cc2=O)sc1C(=O)NCc1ccccc1
69 | 114 to 115 | CCCCc1c(/C=C/C(=O)Oc2ccc([N+](=O)[O-])cc2)ccc2ccc(OC)cc12
70 | 120 to 122 | Cc1cccc(Nc2cc(Nc3cccc(OCC(O)CN(C)C)c3)ncn2)c1 (configuration not stated)
71 | 137 to 139 | N#Cc1cccnc1N1CCN(CNC(=O)c2ccccc2Cl)CC1
72 | 122 to 123 | CCCC(=O)Oc1ccc2nc(S(N)(=O)=O)sc2c1

Row | melting point [°C] | Structure (SMILES)
73 | 112 to 114 | CCc1nc(C)cn1C(=O)c1c(Cl)cccc1Cl
74 | 81 to 82 | Cc1cc(O)c(SCCC(C)C)c(=O)o1
75 | > 300 | Fc1ccc(Nc2ncnc3[nH]c(-c4ccc(CCl)cc4)cc23)cc1Cl
76 | 76 to 78 | COC(=O)/C=C/c1c(OC)cccc1OC
77 | 169 to 170 | CCc1noc(-c2cc3c4ccccc4n(CCCN4CCC(O)(c5ccccc5)CC4)c3cn2)n1
78 | 236 to 237 | CCN1CCN(c2c(F)c(N)c3c(=O)c(C(=O)O)cn(C4CC4)c3c2F)CC1
79 | 25 to 27 | C=CCSc1ccc(OC)nn1
80 | 197 to 198 | CCNC(=O)Nc1cc(C(C)(C)C)c2c(c1)C(C)(C)CO2
81 | 140 | NC(=O)CCc1c[nH]c2ccccc12
82 | 33 to 35 | Nn1cccc1C(=O)C(F)(F)F
83 | 170 to 171 | Cc1ccc(-c2ccc3c(c2)C=C(C(=O)Nc2ccc(CN(C)C4CCOCC4)cc2)CC(C)O3)cc1 (configuration not stated)
84 | 65 to 70 | CCOC(=O)c1cnc2c(cnn2CCC(C)C)c1O
85 | 128 to 132 | CCc1nc2c(C)cc(C)nc2n1Cc1ccc(C(c2ccccc2)C(CO)c2nnn[nH]2)cc1 (configuration not stated)
86 | 69 to 71 | Cc1ccc(OCc2ccccc2)c(C(CCO)c2ccccc2)c1 (configuration not stated)
87 | 77 to 78 | O=S(c1ccccc1)c1ncc(Cl)cc1F (configuration not stated)
88 | 168 to 169 | O=C(O)CNC(=O)c1ccc(OCc2ccccc2)cc1OCc1ccccc1
89 | 156 | Cc1nc2n(c(=O)c1CCN1CCC(c3noc4cc(F)ccc34)CC1)CC(O)CC2 (configuration not stated)
90 | 136 to 139 | COc1ccc(C(=O)Cc2ccnc(NC(=O)c3ccccc3)c2)cc1
91 | 181 to 182 | CCOC(=O)c1ccc(NC(=O)NCCn2c(C)ccc2C)cc1
92 | 57 to 58 | C=Cc1ccc(OS(C)(=O)=O)cc1
93 | 263 to 265 | O=c1[nH]c2ccccc2cc1Br

Row | Structure (SMILES) | melting point [°C]
94 | CC1(C)C2CC[C@@]1(N1CCOCC1)[C@H](O)C2 | 35 to 36
95 | Cn1cnc2cc(C(=O)NC3CC3)c(NC(=O)c3cc(C(F)(F)F)nn3-c3ncccc3Cl)c(Cl)c21 | 148 to 151
96 | Cc1cc(NC2=NCCN2)n(C(C)C)n1 | 173 to 175
97 | CCC(=O)OCC12CCC(=O)C=C1CCC1C2CCC2(C)C(OC(=O)CC)CCC12 (configuration not stated) | 82 to 84
98 | CNC(=O)Oc1ccc(CN2CCN(c3ccc([N+](=O)[O-])cc3)CC2)cc1OC | 155 to 157
99 | C=C(C)c1c(OCC)cc(Cc2cnc(N)nc2N)cc1OCC | 196 to 198
100 | CC1(C)COP(N(CCCN(C2CC(C)(C)NC(C)(C)C2)P2OCC(C)(C)CO2)C2CC(C)(C)NC(C)(C)C2)OC1 | 102
101 | CNc1cc([N+](=O)[O-])cc([N+](=O)[O-])c1 | 153 to 154
102 | CC(C)(C)OC(=O)c1ncn2c1[C@@H]1CCN1C(=O)c1ccccc1-2 | 185 to 187
